Assay results reported in publication PMC5218480 (PLoS ONE, 2017).

Tested on: MV-4-11 cells
Experiment: Gene expression microarray analysis (Affymetrix PrimeView) and GSEA
Assay type: cell-based, human
Parameters: RFU PODN (11730768_x_at) / Fold change /veh PODN (11730768_x_at) / RFU LINC00158 (11744669_a_at) / Fold change /veh LINC00158 (11744669_a_at) / RFU DUSP10 (11751237_a_at) / Fold change /veh DUSP10 (11751237_a_at) / RFU ID3 (11757404_x_at) / Fold change /veh ID3 (11757404_x_at) / RFU PLEKHG5 (11737974_s_at) / Fold change /veh PLEKHG5 (11737974_s_at) / RFU LRRC4B (11730491_at) / Fold change /veh LRRC4B (11730491_at) / RFU GIMAP4 (11747438_a_at) / Fold change /veh GIMAP4 (11747438_a_at) / RFU KRT8 (11758183_x_at) / Fold change /veh KRT8 (11758183_x_at) / RFU CNN1 (11734310_a_at) / Fold change /veh CNN1 (11734310_a_at) / RFU VPS37D (11726825_at) / Fold change /veh VPS37D (11726825_at) / RFU C10orf10 (11716522_x_at) / Fold change /veh C10orf10 (11716522_x_at) / RFU KIR2DL2 /// KIR2DL4 /// KIR2DL5A /// KIR2DL5B /// KIR2DS1 /// KIR2DS2 /// KIR2DS3 /// KIR2DS4 /// KIR3DL3 /// KIR3DL3 /// KIR3DS1 (11738374_at) / Fold change /veh KIR2DL2 /// KIR2DL4 /// KIR2DL5A /// KIR2DL5B /// KIR2DS1 /// KIR2DS2 /// KIR2DS3 /// KIR2DS4 /// KIR3DL3 /// KIR3DL3 /// KIR3DS1 (11738374_at) / RFU C1QL1 (11718748_at) / Fold change /veh C1QL1 (11718748_at) / RFU TMPRSS4 (11747572_a_at) / Fold change /veh TMPRSS4 (11747572_a_at) / RFU HAMP (11756126_x_at) / Fold change /veh HAMP (11756126_x_at) / RFU RNFT2 (11725882_a_at) / Fold change /veh RNFT2 (11725882_a_at) / RFU NR4A2 (11747474_a_at) / Fold change /veh NR4A2 (11747474_a_at) / RFU ABCC12 (11746883_a_at) / Fold change /veh ABCC12 (11746883_a_at) / RFU TMEM136 (11760407_x_at) / Fold change /veh TMEM136 (11760407_x_at) / RFU CLDN22 /// WWC2 (11732394_at) / Fold change /veh CLDN22 /// WWC2 (11732394_at) / RFU HLA-DPB1 (11760878_x_at) / Fold change /veh HLA-DPB1 (11760878_x_at) / RFU SPINT1 (11716480_a_at) / Fold change /veh SPINT1 (11716480_a_at) / RFU GAP43 (11754022_s_at) / Fold change /veh GAP43 (11754022_s_at) / RFU A4GNT (11735810_at) / Fold change /veh A4GNT (11735810_at) / RFU PRB3 (11715151_x_at) / Fold change /veh PRB3 (11715151_x_at) / RFU TUBB4B (11761932_at) / Fold change /veh TUBB4B (11761932_at) / RFU CAPN14 (11732068_a_at) / Fold change /veh CAPN14 (11732068_a_at) / RFU TMCC2 (11721928_a_at) / Fold change /veh TMCC2 (11721928_a_at) / RFU IRGQ (11745062_a_at) / Fold change /veh IRGQ (11745062_a_at) / RFU FAM174B (11720279_a_at) / Fold change /veh FAM174B (11720279_a_at) / RFU TMPRSS4 (11748680_a_at) / Fold change /veh TMPRSS4 (11748680_a_at) / RFU FAM212B (11763350_a_at) / Fold change /veh FAM212B (11763350_a_at) / RFU PLEKHG5 (11743358_a_at) / Fold change /veh PLEKHG5 (11743358_a_at) / RFU ZSCAN30 (11745921_a_at) / Fold change /veh ZSCAN30 (11745921_a_at) / RFU CMKLR1 (11741424_a_at) / Fold change /veh CMKLR1 (11741424_a_at) / RFU LOC101060620 /// MAPK8IP1 (11723275_at) / Fold change /veh LOC101060620 /// MAPK8IP1 (11723275_at) / RFU SPTSSB (11747773_x_at) / Fold change /veh SPTSSB (11747773_x_at) / RFU PRSS12 (11739890_at) / Fold change /veh PRSS12 (11739890_at) / RFU BIN1 (11741810_x_at) / Fold change /veh BIN1 (11741810_x_at) / RFU WNT11 (11732464_a_at) / Fold change /veh WNT11 (11732464_a_at) / RFU C10orf10 (11716521_a_at) / Fold change /veh C10orf10 (11716521_a_at) / RFU C5orf56 (11738089_at) / Fold change /veh C5orf56 (11738089_at) / RFU CYB561 (11721691_x_at) / Fold change /veh CYB561 (11721691_x_at) / RFU ANKRD19P (11752326_a_at) / Fold change /veh ANKRD19P (11752326_a_at) / RFU OR2T12 /// OR2T33 /// OR2T8 (11738714_s_at) / Fold change /veh OR2T12 /// OR2T33 /// OR2T8 (11738714_s_at) / RFU VCAN (11748164_a_at) / Fold change /veh VCAN (11748164_a_at) / RFU JSRP1 (11732532_at) / Fold change /veh JSRP1 (11732532_at) / RFU KRTAP10-11 (11738290_x_at) / Fold change /veh KRTAP10-11 (11738290_x_at) / RFU MYO3A (11730013_a_at) / Fold change /veh MYO3A (11730013_a_at) / RFU EBF3 (11725865_a_at) / Fold change /veh EBF3 (11725865_a_at) / RFU CAMK2N1 (11719241_x_at) / Fold change /veh CAMK2N1 (11719241_x_at) / RFU C5orf56 (11738088_a_at) / Fold change /veh C5orf56 (11738088_a_at) / RFU OLFML3 (11715873_a_at) / Fold change /veh OLFML3 (11715873_a_at) / RFU LOC100653217 /// NTM (11731650_a_at) / Fold change /veh LOC100653217 /// NTM (11731650_a_at) / RFU MAPK11 (11762145_a_at) / Fold change /veh MAPK11 (11762145_a_at) / RFU FIZ1 (11724087_x_at) / Fold change /veh FIZ1 (11724087_x_at) / RFU OASL (11726364_x_at) / Fold change /veh OASL (11726364_x_at) / RFU SOX15 (11748057_x_at) / Fold change /veh SOX15 (11748057_x_at) / RFU CD79A (11719716_a_at) / Fold change /veh CD79A (11719716_a_at) / RFU HIST1H1D (11736915_at) / Fold change /veh HIST1H1D (11736915_at) / RFU CASKIN2 (11723855_a_at) / Fold change /veh CASKIN2 (11723855_a_at) / RFU LOC730098 (11760151_x_at) / Fold change /veh LOC730098 (11760151_x_at) / RFU OR4N2 (11742367_at) / Fold change /veh OR4N2 (11742367_at) / RFU PRRT2 (11749266_a_at) / Fold change /veh PRRT2 (11749266_a_at) / RFU SNX32 (11753110_a_at) / Fold change /veh SNX32 (11753110_a_at) / RFU CDHR5 (11726645_a_at) / Fold change /veh CDHR5 (11726645_a_at) / RFU RCAN1 (11760418_a_at) / Fold change /veh RCAN1 (11760418_a_at) / RFU FAM167A (11723789_a_at) / Fold change /veh FAM167A (11723789_a_at) / RFU FAM26E (11764081_at) / Fold change /veh FAM26E (11764081_at) / RFU ISYNA1 (11749810_s_at) / Fold change /veh ISYNA1 (11749810_s_at) / RFU ACY1 (11761880_at) / Fold change /veh ACY1 (11761880_at) / RFU 11764098_at / Fold change /veh 11764098_at / RFU SAMD14 (11745864_x_at) / Fold change /veh SAMD14 (11745864_x_at) / RFU NPB (11741838_a_at) / Fold change /veh NPB (11741838_a_at) / RFU TMPRSS6 (11731388_a_at) / Fold change /veh TMPRSS6 (11731388_a_at) / RFU KRTAP10-2 (11738614_at) / Fold change /veh KRTAP10-2 (11738614_at) / RFU ARHGAP8 /// PRR5-ARHGAP8 (11727945_x_at) / Fold change /veh ARHGAP8 /// PRR5-ARHGAP8 (11727945_x_at) / RFU KRTAP5-7 /// NADSYN1 (11734609_at) / Fold change /veh KRTAP5-7 /// NADSYN1 (11734609_at) / RFU RASL12 (11751679_a_at) / Fold change /veh RASL12 (11751679_a_at) / RFU CDKN2B (11736163_a_at) / Fold change /veh CDKN2B (11736163_a_at) / RFU PRF1 (11729649_at) / Fold change /veh PRF1 (11729649_at) / RFU, ZNF638 /// ZNF638-IT1 / Fold change vs veh, ZNF638 /// ZNF638-IT1 / RFU, PANK3 / Fold change vs veh, PANK3 / RFU, SH3YL1 / Fold change vs veh, SH3YL1 / RFU, ZEB2 / Fold change vs veh, ZEB2 / RFU, NRIP1 / Fold change vs veh, NRIP1 / RFU, PTTG1IP / Fold change vs veh, PTTG1IP / RFU, CAPN2 / Fold change vs veh, CAPN2 / RFU, MED14 / Fold change vs veh, MED14 / RFU, SNORA58 / Fold change vs veh, SNORA58 / RFU, C1orf63 / Fold change vs veh, C1orf63 / RFU, LRRFIP1 / Fold change vs veh, LRRFIP1 / RFU, NDUFAF7 / Fold change vs veh, NDUFAF7 / RFU, SLC12A2 / Fold change vs veh, SLC12A2 / RFU, IBTK / Fold change vs veh, IBTK / RFU, ESF1 / Fold change vs veh, ESF1 / Fold change vs veh, TMEM50B / RFU, TAOK1 / Fold change vs veh, TAOK1 / RFU, ACBD3 / Fold change vs veh, ACBD3 / RFU, TMA16 / Fold change vs veh, TMA16 / RFU, RWDD3 / Fold change vs veh, RWDD3 / RFU, BCAT1 / Fold change vs veh, BCAT1 / RFU, EDEM3 / Fold change vs veh, EDEM3 / RFU, TMEM33 / Fold change vs veh, TMEM33 / RFU, WDR75 / Fold change vs veh, WDR75 / RFU, AHCTF1 / Fold change vs veh, AHCTF1 / RFU, TFRC / Fold change vs veh, TFRC / RFU, ZDHHC17 / Fold change vs veh, ZDHHC17 / RFU, NOM1 / Fold change vs veh, NOM1 / RFU, ARL8B / Fold change vs veh, ARL8B / RFU, ZBTB11 / Fold change vs veh, ZBTB11 / RFU, TAMM41 / Fold change vs veh, TAMM41 / RFU, KIAA1704 /// LOC100996395 / Fold change vs veh, KIAA1704 /// LOC100996395 / RFU, ING1 / Fold change vs veh, ING1 / RFU, TRMT61B / Fold change vs veh, TRMT61B / RFU, FUBP3 / Fold change vs veh, FUBP3 / RFU, TP53 / Fold change vs veh, TP53 / RFU, TNKS2 / Fold change vs veh, TNKS2 / RFU, ZFP14 / Fold change vs veh, ZFP14 / RFU, ACTR2 / Fold change vs veh, ACTR2 / RFU, PPP3R1 / Fold change vs veh, PPP3R1 / RFU, PIK3R1 / Fold change vs veh, PIK3R1 / RFU, HNRNPA1 / Fold change vs veh, HNRNPA1 / RFU, RNF170 / Fold change vs veh, RNF170 / RFU, ZNF28 / Fold change vs veh, ZNF28 / RFU, RNGTT / Fold change vs veh, RNGTT / RFU, OGT / Fold change vs veh, OGT / RFU, BRD1 / Fold change vs veh, BRD1 / RFU, MARS / Fold change vs veh, MARS / RFU, ZNF655 / Fold change vs veh, ZNF655 / RFU, FAHD1 / Fold change vs veh, FAHD1 / RFU, BDP1 / Fold change vs veh, BDP1 / RFU, LRRCC1 / Fold change vs veh, LRRCC1 / RFU, ARID1A / Fold change vs veh, ARID1A / RFU, ZNF146 / Fold change vs veh, ZNF146 / RFU, ZNF330 / Fold change vs veh, ZNF330 / RFU, GPN3 / Fold change vs veh, GPN3 / RFU, C9orf123 / Fold change vs veh, C9orf123 / RFU, N4BP2L2 / Fold change vs veh, N4BP2L2 / RFU, ARFIP1 / Fold change vs veh, ARFIP1 / RFU, FAM179B / Fold change vs veh, FAM179B / RFU, BCL10 / Fold change vs veh, BCL10 / RFU, UHRF1BP1L / Fold change vs veh, UHRF1BP1L / RFU, BET1 / Fold change vs veh, BET1 / RFU, CNOT2 / Fold change vs veh, CNOT2 / RFU, ZNF268 / Fold change vs veh, ZNF268 / Fold change vs veh, ZNF507 / RFU, DGCR2 / Fold change vs veh, DGCR2 / RFU, WDSUB1 / Fold change vs veh, WDSUB1 / Fold change vs veh, HSP90B1 /// MIR3652 / RFU, ADSS / Fold change vs veh, ADSS / RFU, GK / Fold change vs veh, GK / RFU, ZNF148 / Fold change vs veh, ZNF148 / RFU, TAF9 / Fold change vs veh, TAF9 / RFU, SLC1A5 / Fold change vs veh, SLC1A5 / RFU, SLMO2 / Fold change vs veh, SLMO2 / RFU, ABCC4 / Fold change vs veh, ABCC4 / RFU, LOC101060439 /// RAP1B / Fold change vs veh, LOC101060439 /// RAP1B / RFU, RFX7 / Fold change vs veh, RFX7 / RFU, GTPBP10 / Fold change vs veh, GTPBP10 / RFU, CNEP1R1 / Fold change vs veh, CNEP1R1 / RFU, BIVM-ERCC5 /// ERCC5 / Fold change vs veh, BIVM-ERCC5 /// ERCC5 / RFU, ILF3 / Fold change vs veh, ILF3 / RFU 11762660_at / Fold change /veh 11762660_at / RFU VCAN (11757783_s_at) / Fold change /veh VCAN (11757783_s_at) / RFU DDX43 (11728927_at) / Fold change /veh DDX43 (11728927_at) / RFU KRT8 (11758188_x_at) / Fold change /veh KRT8 (11758188_x_at) / RFU NKD1 (11759106_at) / Fold change /veh NKD1 (11759106_at) / RFU SRD5A1 (11742802_a_at) / Fold change /veh SRD5A1 (11742802_a_at) / RFU TPSAB1 /// TPSB2 (11721975_s_at) / Fold change /veh TPSAB1 /// TPSB2 (11721975_s_at) / RFU GSTM3 (11746129_a_at) / Fold change /veh GSTM3 (11746129_a_at) / RFU IL23R (11737362_x_at) / Fold change /veh IL23R (11737362_x_at) / RFU TMEM51 (11727254_a_at) / Fold change /veh TMEM51 (11727254_a_at) / RFU PIWIL2 (11732686_x_at) / Fold change /veh PIWIL2 (11732686_x_at) / RFU ORM1 (11744905_x_at) / Fold change /veh ORM1 (11744905_x_at) / RFU CCDC152 (11743942_at) / Fold change /veh CCDC152 (11743942_at) / RFU ECM1 (11717891_a_at) / Fold change /veh ECM1 (11717891_a_at) / RFU IL23R (11748794_a_at) / Fold change /veh IL23R (11748794_a_at) / RFU TNFAIP8L3 (11732012_x_at) / Fold change /veh TNFAIP8L3 (11732012_x_at) / RFU MBOAT4 (11741988_at) / Fold change /veh MBOAT4 (11741988_at) / RFU 11764193_at / Fold change /veh 11764193_at / RFU TMEM53 (11763286_at) / Fold change /veh TMEM53 (11763286_at) / RFU MAGEB2 (11727129_at) / Fold change /veh MAGEB2 (11727129_at) / RFU TMEM200A (11744735_a_at) / Fold change /veh TMEM200A (11744735_a_at) / RFU CCDC152 (11751479_a_at) / Fold change /veh CCDC152 (11751479_a_at) / RFU FAM211A (11726209_a_at) / Fold change /veh FAM211A (11726209_a_at) / RFU RGS16 (11746705_a_at) / Fold change /veh RGS16 (11746705_a_at) / RFU VCAN (11755009_s_at) / Fold change /veh VCAN (11755009_s_at) / RFU RHOB (11743442_s_at) / Fold change /veh RHOB (11743442_s_at) / RFU RGS16 (11720943_a_at) / Fold change /veh RGS16 (11720943_a_at) / RFU RGS16 (11720944_at) / Fold change /veh RGS16 (11720944_at) / RFU, VPS4B / Fold change vs veh, VPS4B / RFU, CREB1 / Fold change vs veh, CREB1 / RFU, DNAJC13 / Fold change vs veh, DNAJC13 / RFU, GNAQ / Fold change vs veh, GNAQ / RFU, CDK5R1 / Fold change vs veh, CDK5R1 / RFU, ZRANB3 / Fold change vs veh, ZRANB3 / RFU, CUL4A / Fold change vs veh, CUL4A / RFU, CCNY / Fold change vs veh, CCNY / RFU, UFL1 / Fold change vs veh, UFL1 / RFU, COG3 / Fold change vs veh, COG3 / RFU, DIAPH2 / Fold change vs veh, DIAPH2 / RFU, SKA2 / Fold change vs veh, SKA2 / RFU, AFF3 / Fold change vs veh, AFF3 / RFU, LMF1 / Fold change vs veh, LMF1 / RFU, IPO11 / Fold change vs veh, IPO11 / RFU, DFFB / Fold change vs veh, DFFB / RFU, FOXP1 / Fold change vs veh, FOXP1 / RFU, CARD8 / Fold change vs veh, CARD8 / RFU, STRN3 / Fold change vs veh, STRN3 / RFU, ADK / Fold change vs veh, ADK / RFU, RASSF2 / Fold change vs veh, RASSF2 / RFU, WIPF1 / Fold change vs veh, WIPF1 / RFU, LARP1B / Fold change vs veh, LARP1B / RFU, RASA1 / Fold change vs veh, RASA1 / RFU, RB1 / Fold change vs veh, RB1 / RFU, PPFIA1 / Fold change vs veh, PPFIA1 / RFU, MAT2A / Fold change vs veh, MAT2A / RFU, CCT5 / Fold change vs veh, CCT5 / RFU, WDR92 / Fold change vs veh, WDR92 / RFU, CUX1 / Fold change vs veh, CUX1 / RFU, TTC7A / Fold change vs veh, TTC7A / RFU, TMEM135 / Fold change vs veh, TMEM135 / RFU, DEPTOR / Fold change vs veh, DEPTOR / RFU, CPM / Fold change vs veh, CPM / RFU, DNAJB6 / Fold change vs veh, DNAJB6 / RFU, CACNA2D3 / Fold change vs veh, CACNA2D3 / RFU, DTX4 / Fold change vs veh, DTX4 / RFU, TFCP2 / Fold change vs veh, TFCP2 / RFU, GMCL1 /// GMCL1P1 / Fold change vs veh, GMCL1 /// GMCL1P1 / RFU, AEBP2 / Fold change vs veh, AEBP2 / RFU, SNHG1 /// SNORD22 /// SNORD25 /// SNORD26 /// SNORD27 /// SNORD28 /// SNORD29 /// SNORD31 / Fold change vs veh, SNHG1 /// SNORD22 /// SNORD25 /// SNORD26 /// SNORD27 /// SNORD28 /// SNORD29 /// SNORD31 / Fold change (Aza/veh), C12orf56 (ProbeSet 11735607_a_at) / Fold change (ACY-1035/veh), C12orf56 (ProbeSet 11735607_a_at) / Fold change (Aza/veh), FGFR1OP (ProbeSet 11751329_s_at) / Fold change (ACY-1035/veh), FGFR1OP (ProbeSet 11751329_s_at) / Fold change (Aza/veh), VPS36 (ProbeSet 11739960_a_at) / Fold change (ACY-1035/veh), VPS36 (ProbeSet 11739960_a_at) / RFU SYPL1 (11715823_x_at) / Fold change /veh SYPL1 (11715823_x_at) / RFU IGFBP7 (11715501_s_at) / Fold change /veh IGFBP7 (11715501_s_at) / RFU REEP3 (11722064_at) / Fold change /veh REEP3 (11722064_at) / RFU IGLL1 (11728026_x_at) / Fold change /veh IGLL1 (11728026_x_at): dose or concentration left out as unconfirmed
Conditions: MV-4-11 cells, 48 hours

Compound: Nc1ncn([C@@H]2O[C@H](CO)[C@@H](O)[C@H]2O)c(=O)n1 [azacitidine]
- Fold change /veh NKD1 (11759106_at): 1.33
